Columns and labels:
[1] = system: male obese ZSF1 rats (diabetic nephropathy model); test: ZSF1 rat study: plasma triglyceride and cholesterol; type: in vivo; settings: for Plasma Triglyceride / plasma cholesterol levels: obese ZSF1 rats; for plasma cholesterol levels: in mg/dL (unit assumed)
Description: The effects of Compound A (“A”) on renal function, plasma triglycerides, plasma cholesterol, kidney collagen I, kidney collagen III, renal histology, glomerular filtration rate, fibrosis score, and mRNA gene expression (profibrotic genes and integrin β3) were evaluated in male obese ZSF1 rats (a hybrid F1 of Zucker diabetic fatty rat and spontaneously hypertensive heart failure rat; a diabetic nephropathy model) when administered as in-feed for 28 weeks. Sixty obese male ZSF1 rats were randomized to five groups: Obese control (n=12), Compound A 60 mpk (n=12), Compound A 200 mpk (n=12), Compound A 400 mpk (n=12), Enalapril 10 mpk (n=12); Eight lean male ZSF1 rats were used for normal control. Renal functional changes were monitored by blood and urine analysis following in-feed dosing for 28 weeks. Compound exposure was also monitored during the study.

human podocytes = test: Oris cell migration assay, podocyte motility, Compound A alone, vitronectin coated plate; type: cell-based; settings: for % migrated cells vs control cells: 48 h, VN plate
Description: The effects of Compound A on podocyte motility were evaluated using Oris cell migration assay kit in 96-well plates (coated with either vitronectin or fibronectin). The Oris™ Cell Migration Assay is designed with a unique cell seeding stopper or biocompatible gel, detection mask, and stopper tool. These unique plate designs generate highly reproducible results using a microscope, digital imaging system. 7 to 10-day differentiated human podocytes (100 ul of 50,000 cells/ml) were seeded in each well of the ORIS plate. After sitting at room temperature for about 15 minutes, the plate was placed into 37° C. incubator and podocytes were incubated with complete podocyte medium for 24 h. Stoppers from each well (keeping stoppers in 4 wells which were served as time zero control) were carefully removed, medium discarded, and fresh (10% FBS) podocyte medium added to each well. Podocytes were pretreated with Compound A (10 uM to 0.01 nM) for 2 h prior to puromycin animonucleoside (PAN, 30 ug/ml or 15 ug/ml) treatment. Podocytes were then treated with PAN in the presence or absence of Compound A at different concentrations (ranging from 10 uM to 0.01 nM) in 10% FBS medium for 48 h. Podocytes were then fixed with 4% paraformaldehyde in PBS for 30 minutes (adding 50 ul to each well). After discarding the fixative, podocytes were stained with Hoechst 33342 (stock […] working concentration at 5 uM) for 30 min. Podocytes were then washed with PBS three times. Finally, after adding 100 ul of PBS to each well, plate was sealed with a black cover and kept at 4° C. until image analysis. Images of podocyte motility were captured using Acumen eX3 (manufacturer TTP Labtech Ltd. address: Melbourn Science Park, Melbourn, Hertfordshire SG8 6EE, United Kingdom).
Effect of Compound A (“A”) alone on human podocyte motility was examined using Oris cell migration assay in vitronectin (VN) coated-96-well plate.

[2] = target: T1, Human recombinant integrin αvβ3 (Homo sapiens, UniProt P05106+P06756); test: Thermal shift assay (differential scanning fluorimetry), αvβ3; type: binding; settings: αvβ3, 20 μM Compound A
T1 construct: purchased R&D Systems
T1 sequence (P06756 31-992 limits assumed): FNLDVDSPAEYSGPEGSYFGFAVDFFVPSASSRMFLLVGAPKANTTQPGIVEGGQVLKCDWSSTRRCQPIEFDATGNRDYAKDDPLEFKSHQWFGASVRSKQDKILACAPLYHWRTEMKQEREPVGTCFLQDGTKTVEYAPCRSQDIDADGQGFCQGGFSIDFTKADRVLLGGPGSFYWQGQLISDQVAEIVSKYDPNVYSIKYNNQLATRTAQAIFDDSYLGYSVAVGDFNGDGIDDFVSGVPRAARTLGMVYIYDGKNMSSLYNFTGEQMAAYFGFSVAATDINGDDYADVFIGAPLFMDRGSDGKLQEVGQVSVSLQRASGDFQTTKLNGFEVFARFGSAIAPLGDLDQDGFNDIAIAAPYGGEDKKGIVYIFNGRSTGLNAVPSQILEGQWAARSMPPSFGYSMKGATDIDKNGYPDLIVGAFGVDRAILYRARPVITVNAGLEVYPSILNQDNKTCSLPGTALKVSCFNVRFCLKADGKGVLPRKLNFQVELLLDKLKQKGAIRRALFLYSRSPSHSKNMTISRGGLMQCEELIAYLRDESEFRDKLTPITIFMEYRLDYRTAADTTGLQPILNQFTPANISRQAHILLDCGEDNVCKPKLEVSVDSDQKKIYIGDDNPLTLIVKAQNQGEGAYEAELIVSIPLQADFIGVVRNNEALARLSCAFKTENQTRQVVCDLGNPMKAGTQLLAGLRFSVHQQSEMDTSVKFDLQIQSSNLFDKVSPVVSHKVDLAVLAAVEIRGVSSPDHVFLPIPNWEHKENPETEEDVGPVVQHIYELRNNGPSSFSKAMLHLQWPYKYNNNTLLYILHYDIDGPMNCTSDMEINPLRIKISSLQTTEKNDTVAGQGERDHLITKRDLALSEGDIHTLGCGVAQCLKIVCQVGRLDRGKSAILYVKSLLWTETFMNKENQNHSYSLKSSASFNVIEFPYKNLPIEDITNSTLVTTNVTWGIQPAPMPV
T1 sequence (P05106 27-718 limits assumed): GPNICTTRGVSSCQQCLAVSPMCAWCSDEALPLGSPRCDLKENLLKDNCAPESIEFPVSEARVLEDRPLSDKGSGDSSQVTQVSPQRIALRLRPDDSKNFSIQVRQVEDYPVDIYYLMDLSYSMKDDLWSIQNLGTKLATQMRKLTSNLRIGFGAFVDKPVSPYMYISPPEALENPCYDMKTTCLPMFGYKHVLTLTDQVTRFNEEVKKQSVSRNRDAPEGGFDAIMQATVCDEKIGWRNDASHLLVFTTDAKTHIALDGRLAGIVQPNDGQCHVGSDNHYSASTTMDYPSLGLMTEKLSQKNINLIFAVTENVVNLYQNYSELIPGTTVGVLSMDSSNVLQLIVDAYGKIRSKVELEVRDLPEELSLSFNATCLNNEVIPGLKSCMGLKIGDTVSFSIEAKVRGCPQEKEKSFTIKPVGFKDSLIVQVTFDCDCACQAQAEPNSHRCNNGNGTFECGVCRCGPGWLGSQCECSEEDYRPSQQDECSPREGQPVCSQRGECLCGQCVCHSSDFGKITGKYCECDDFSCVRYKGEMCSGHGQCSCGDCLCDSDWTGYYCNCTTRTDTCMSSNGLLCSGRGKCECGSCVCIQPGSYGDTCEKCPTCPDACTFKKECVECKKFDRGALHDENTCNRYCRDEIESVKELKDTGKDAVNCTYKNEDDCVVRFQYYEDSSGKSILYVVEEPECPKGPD
Description: Differential scanning fluorimetry was performed on a LightCycler 480 II, real-time PCR instrument (Roche Diagnostics). Human recombinant integrins from R&D Systems (αvβ1, αvβ3 and α5β1) were reconstituted at a concentration of […] in assay buffer (20 mM HEPES, pH=7.3, 100 mM NaCl, 1 mM MgCl2, 1 mM MnCl2) and diluted in assay buffer with Sypro orange (SIGMA) to a final concentration of 400 nM integrin and 5× Sypro orange. A volume of 4.9 μL of this mixture of protein and dye was transferred to a 384-well plate and 100 nL of DMSO or Compound A, dissolved in DMSO, were added using an Echo 555 instrument (Labcyte). The final concentration of Compound A in the assay was 20 μM. After mixing, the assay plate was sealed, spun at 1,000×g for two minutes, and subsequently heated from 25 to 99° C. over the course of 31 min in the LightCycler 480 II instrument. Fluorescence intensity was measured using excitation/emission wavelengths of 465 and 580 nm, respectively. Changes in protein thermal stability (ΔTm) upon compound binding were analyzed by using LightCycler 480 (software provided by the manufacturer).

With `COc1ccc([C@H](CC(=O)O)N2CCN(CCCc3ccc4c(n3)NCCC4)C2=O)cn1` [Compound A, 3-{2-Oxo-3-[3-(5,6,7,8-tetrahydro-[1,8]naphthyridin-2-yl)-propyl]imidazolidin-1-yl}-3 (S)-(6-methoxy-pyridin-3-yl)-propionic acid] the “effect on plasma triglyceride levels” value ([1]; 200 mpk at week 4 and 400 mpk at week 16 and 28) was “significantly decreased”, the “effect on plasma cholesterol levels” value ([1]; 200 mpk at week 28 and 400 mpk at week 16, 21, 24, and 28) was “significantly decreased” and the “plasma TG and cholesterol” value ([1]; high doses, obese ZSF-1 rats vs untreated obese ZSF-1 rats (summary)) was “improvement of plasma TG and cholesterol”. The “Plasma Triglyceride” value ([1]; 60 mpk in-feed, week 2) was 2535.3 ± 170.6 mg/dL, the plasma cholesterol levels ([1]; 60 mpk in-feed, week 2) was 229.3 ± 9.6 and the “Plasma Triglyceride” value ([1]; 60 mpk in-feed, week 4) was 2807.5 ± 143.4 mg/dL. The plasma cholesterol levels ([1]; 60 mpk in-feed, week 4) was 262.7 ± 10.5, the “Plasma Triglyceride” value ([1]; 60 mpk in-feed, week 6) was 2873.2 ± 116.5 mg/dL and the plasma cholesterol levels ([1]; 60 mpk in-feed, week 6) was 261.2 ± 9.9. For the same compound, the “Plasma Triglyceride” value ([1]; 60 mpk in-feed, week 8) was 3187.9 ± 157.1 mg/dL, the plasma cholesterol levels ([1]; 60 mpk in-feed, week 8) was 289.1 ± 9.5 and the “Plasma Triglyceride” value ([1]; 60 mpk in-feed, week 12) was 3138.5 ± 168.9 mg/dL. For the same compound, the plasma cholesterol levels ([1]; 60 mpk in-feed, week 12) was 315.4 ± 13.2, the “Plasma Triglyceride” value ([1]; 60 mpk in-feed, week 16) was 3120.3 ± 191.6 mg/dL and the plasma cholesterol levels ([1]; 60 mpk in-feed, week 16) was 357.8 ± 13.3. The “Plasma Triglyceride” value ([1]; 60 mpk in-feed, week 21) was 2933.4 ± 317.5 mg/dL, the plasma cholesterol levels ([1]; 60 mpk in-feed, week 21) was 392.9 ± 20.6 and the “Plasma Triglyceride” value ([1]; 60 mpk in-feed, week 24) was 3093.3 ± 355.2 mg/dL. The plasma cholesterol levels ([1]; 60 mpk in-feed, week 24) was 448.0 ± 23.8, the “Plasma Triglyceride” value ([1]; 60 mpk in-feed, week 28) was 3218.7 ± 427.5 mg/dL and the plasma cholesterol levels ([1]; 60 mpk in-feed, week 28) was 495.7 ± 29.4. For the same compound, the “Plasma Triglyceride” value ([1]; 60 mpk in-feed, week −2) was 2046.8 ± 72.0 mg/dL, the plasma cholesterol levels ([1]; 60 mpk in-feed, week −2) was 192.0 ± 4.5 and the “Plasma Triglyceride” value ([1]; 200 mpk in-feed, week 2) was 2111.1 ± 123.5 mg/dL. The plasma cholesterol levels ([1]; 200 mpk in-feed, week 2) was 205.4 ± 7.8, the “Plasma Triglyceride” value ([1]; 200 mpk in-feed, week 4) was 2592.4 ± 206.8 mg/dL and the plasma cholesterol levels ([1]; 200 mpk in-feed, week 4) was 243.5 ± 9.2. The “Plasma Triglyceride” value ([1]; 200 mpk in-feed, week 6) was 2534.6 ± 185.5 mg/dL, the plasma cholesterol levels ([1]; 200 mpk in-feed, week 6) was 233.7 ± 9.1 and the “Plasma Triglyceride” value ([1]; 200 mpk in-feed, week 8) was 3325.3 ± 189.8 mg/dL. The plasma cholesterol levels ([1]; 200 mpk in-feed, week 8) was 289.3 ± 9.3, the “Plasma Triglyceride” value ([1]; 200 mpk in-feed, week 12) was 3188.3 ± 191.4 mg/dL and the plasma cholesterol levels ([1]; 200 mpk in-feed, week 12) was 315.9 ± 11.2. The “Plasma Triglyceride” value ([1]; 200 mpk in-feed, week 16) was 2930.4 ± 217.5 mg/dL, the plasma cholesterol levels ([1]; 200 mpk in-feed, week 16) was 346.8 ± 12.1 and the “Plasma Triglyceride” value ([1]; 200 mpk in-feed, week 21) was 2717.2 ± 199.8 mg/dL. For the same compound, the plasma cholesterol levels ([1]; 200 mpk in-feed, week 21) was 366.7 ± 14.1, the “Plasma Triglyceride” value ([1]; 200 mpk in-feed, week 24) was 2923.8 ± 267.3 mg/dL and the plasma cholesterol levels ([1]; 200 mpk in-feed, week 24) was 415.1 ± 19.6. For the same compound, the “Plasma Triglyceride” value ([1]; 200 mpk in-feed, week 28) was 2632.8 ± 269.6 mg/dL, the plasma cholesterol levels ([1]; 200 mpk in-feed, week 28) was 451.9 ± 23.6 and the “Plasma Triglyceride” value ([1]; 200 mpk in-feed, week −2) was 1965.3 ± 83.6 mg/dL. The plasma cholesterol levels ([1]; 200 mpk in-feed, week −2) was 189.5 ± 6.6, the “Plasma Triglyceride” value ([1]; 400 mpk in-feed, week 2) was 2415.9 ± 119.5 mg/dL and the plasma cholesterol levels ([1]; 400 mpk in-feed, week 2) was 229.8 ± 6.0. The “Plasma Triglyceride” value ([1]; 400 mpk in-feed, week 4) was 2763.1 ± 146.9 mg/dL, the plasma cholesterol levels ([1]; 400 mpk in-feed, week 4) was 252.3 ± 5.3 and the “Plasma Triglyceride” value ([1]; 400 mpk in-feed, week 6) was 2715.6 ± 111.4 mg/dL. The plasma cholesterol levels ([1]; 400 mpk in-feed, week 6) was 238.9 ± 6.6, the “Plasma Triglyceride” value ([1]; 400 mpk in-feed, week 8) was 3185.0 ± 191.8 mg/dL and the plasma cholesterol levels ([1]; 400 mpk in-feed, week 8) was 278.8 ± 9.5. For the same compound, the “Plasma Triglyceride” value ([1]; 400 mpk in-feed, week 12) was 3086.5 ± 121.3 mg/dL, the plasma cholesterol levels ([1]; 400 mpk in-feed, week 12) was 306.4 ± 7.0 and the “Plasma Triglyceride” value ([1]; 400 mpk in-feed, week 16) was 2648.9 ± 167.8 mg/dL. For the same compound, the plasma cholesterol levels ([1]; 400 mpk in-feed, week 16) was 304.6 ± 11.1, the “Plasma Triglyceride” value ([1]; 400 mpk in-feed, week 21) was 2523.9 ± 220.7 mg/dL and the plasma cholesterol levels ([1]; 400 mpk in-feed, week 21) was 351.4 ± 13.8. The “Plasma Triglyceride” value ([1]; 400 mpk in-feed, week 24) was 2439.5 ± 162.4 mg/dL, the plasma cholesterol levels ([1]; 400 mpk in-feed, week 24) was 374.7 ± 12.8 and the “Plasma Triglyceride” value ([1]; 400 mpk in-feed, week 28) was 2215.7 ± 179.3 mg/dL. The plasma cholesterol levels ([1]; 400 mpk in-feed, week 28) was 391.2 ± 14.7, the “Plasma Triglyceride” value ([1]; 400 mpk in-feed, week −2) was 2211.5 ± 117.2 mg/dL and the plasma cholesterol levels ([1]; 400 mpk in-feed, week −2) was 195.5 ± 5.5. The “human podocyte motility, Compound A alone vs vehicle” value (human podocytes; 48 hours, vitronectin coated plate) was “significant inhibition of motility in a dose-dependent manner”, the “% migrated cells vs control cells” value (human podocytes; A alone 0.01 nM) was 39.7% and the “% migrated cells vs control cells” value (human podocytes; A alone 0.0316 nM) was 43.7%. The “% migrated cells vs control cells” value (human podocytes; A alone 0.1 nM) was 38.8%, the “% migrated cells vs control cells” value (human podocytes; A alone 0.316 nM) was 38.6% and the “% migrated cells vs control cells” value (human podocytes; A alone 1 nM) was 33.4%. For the same compound, the “% migrated cells vs control cells” value (human podocytes; A alone 3.16 nM) was 30.6%, the “% migrated cells vs control cells” value (human podocytes; A alone 10 nM) was 19.2% and the “% migrated cells vs control cells” value (human podocytes; A alone 100 nM) was 20.5%. For the same compound, the “% migrated cells vs control cells” value (human podocytes; A alone 1 uM) was 17.9%, the “% migrated cells vs control cells” value (human podocytes; A alone 10 uM) was 17.9% and the ΔTm at 20 µM ([2]; first of two experiments) was 21.5 °C. The ΔTm at 20 µM ([2]; second of two experiments) was 16.4 °C.
